Measurements: US20200093929A1, “PHARMACEUTICAL COMPOSITION FOR THE PREVENTION AND TREATMENT OF MEMORY AND COGNITIVE DEFICITS RELATED TO AGEING” (IGEA PHARMA N.V., priority 2017, published 2020)
Marks after values point to notes of the source that are not given here.

Columns and labels:
[1] = Cell viability by MTT reduction test in N2a cells, with and without Aβ1-42 prefibrillar aggregates; format: cell-based, mouse; conditions: mouse, N2a (ECACC) neuroblastoma cells; read-out: Cell viability (MTT test), % respect to controls
Description: (§1) N2a (ECACC) mouse neuroblastoma cells, plated in the presence of MEM integrated with non-essential amino acids, 10% FCS, antibiotics and glutamine, were exposed for 48 h to micromolar levels of oleuropein aglycone and/or glutathione thioesters (GST), in the presence and in the absence of prefibrillar aggregates of Aβ1-42 peptides (Lambert M, et al. J. Neurochem. 2001, 79:595-605). […] In the control plates (CTRL) the cells were incubated under the same conditions in the presence of the culture medium alone. The following were then evaluated: • the state of cell viability through the MTT reduction test (Pensalfini A et al., Free
(§2) Rad Biol Med 2008, 44: 1624-1636). • the level of mTOR substrate phosphorylation of kinase p70 S6 (mTOR P) by western blot analysis and subsequent densitometry (Grossi C, et al., PLoS ONE 2013, 8: e71702) • the level of intracellular antioxidant capacity (ACi) through hydrosolublescavenger doses in the cellular lysates in chemiluminescence, using • the Pholasin photoprotein (ABEL Antioxidant Test Kit, Knight Scientific Ltd., UK) as reported in Cecchi C., et al. Neurobiol. Aging 28: 863-876, 2007.
(§3) ACi values were correct for the % of viable cells. AP=toxic prefibrillar aggregates.

[2] = tested on: N2a (ECACC) mouse neuroblastoma cells; assay: as above; format: cell-based; conditions: for Comparison of the results among glycated oleuropein, oleuropein aglycone and hydroxytyrosol: Example 1 cell experiments; for Comparison of the results among the glutathione thioesters used (cell viability, mTOR P, ACi): micromolar levels, with and without Aβ1-42 aggregates
Description: as §1, §2, §3

[3] = tested on: N2a (ECACC) mouse neuroblastoma cells; assay: Intracellular antioxidant capacity (ACi) in cell lysates, Pholasin chemiluminescence, N2a cells; format: cell-based; conditions: 48 h, corrected for % viable cells, CTRL 2.60
Description: as §1, §2, §3

mTOR = mTOR substrate phosphorylation of kinase p70 S6 (mTOR P), western blot and densitometry, N2a cells; format: cell-based, mouse; conditions: 48 h
Description: as §1, §2, §3

[4] = in the presence of Aβ42 AP 3 μM (OLE 2 µM; GST 3 µM)
[5] = substance(s) alone, no Aβ42 AP added (Aβ42 AP 3 μM; OLE 2 µM; GST 3 µM)

## C/C=C1/C(O)OC=C(C(=O)OC)[C@H]1CC(=O)OCCc1ccc(O)c(O)c1 (mixture of isomers) [OLE, oleuropein aglycone]
[1]
  viability at 48 h, 2 µM: 98%
[2]
  Comparison of the results among glycated oleuropein, oleuropein aglycone and hydroxytyrosol: No significant differences
[2]; N2a cells, 48 h, in the presence of Aβ42 AP 3 μM (OLE 2 µM; GST 3 µM)
  Cell viability (MTT test), % respect to controls: 65* %
[3]; [4]
  ACi, mmol/L GSH Equivalent: 1.55* mmol/L GSH Equivalent
[3]; [5]
  ACi, mmol/L GSH Equivalent: 2.68 mmol/L GSH Equivalent
mTOR; [4]
  mTOR P, % respect to controls: 69%
mTOR; [5]
  mTOR P, % respect to controls: 12* %

## CC/C=C\C/C=C\C/C=C\C/C=C\C/C=C\C/C=C\CCC(=O)SC[C@H](NC(=O)CC[C@H](N)C(=O)O)C(=O)NCC(=O)O [S-docohexaenoyl-glutathione]
[2]; N2a cells, 48 h
  Comparison of the results among the glutathione thioesters used (cell viability, mTOR P, ACi): equivalent results

## CC/C=C\C/C=C\C/C=C\CCCCCCCC(=O)SCC(NC(=O)CCC(N)C(=O)O)C(=O)NCC(=O)O (stereo not drawn) [S-linolenoyl-glutathione]
[2]; N2a cells, 48 h
  Comparison of the results among the glutathione thioesters used (cell viability, mTOR P, ACi): equivalent results

## CCCCC/C=C\C/C=C\CCCCCCCCSC[C@H](NC(=O)CC[C@H](N)C(=O)O)C(=O)NCC(=O)O [S-linoleyl-glutathione]
[2]; N2a cells, 48 h
  Comparison of the results among the glutathione thioesters used (cell viability, mTOR P, ACi): equivalent results

## CCCCCCCC/C=C\CCCCCCCCSC[C@H](NC(=O)CC[C@H](N)C(=O)O)C(=O)NCC(=O)O [S-oleyl-glutathione]
[2]; N2a cells, 48 h
  Comparison of the results among the glutathione thioesters used (cell viability, mTOR P, ACi): equivalent results

## C/C=C1/[C@H](O[C@@H]2O[C@H](CO)[C@@H](O)[C@H](O)[C@H]2O)OC=C(C(=O)OC)[C@H]1CC(=O)OCCc1ccc(O)c(O)c1 [glycated oleuropein, oleuropein]
[2]
  Comparison of the results among glycated oleuropein, oleuropein aglycone and hydroxytyrosol: No significant differences
